What is called IC50 is the point on the concentration scale where inhibition reaches its midpoint.

For data set [1] the following is noted: cited from earlier work.
For data set [2], the system named is West Nile virus encephalitis. Description: case series: West Nile virus encephalitis treated with angiotensin II receptor blockade. The data set is classed as in vivo, human. The note with it: for clinical outcome: patient 8, person with chronic lymphocytic leukemia, intravenous enalapril then losartan 50 mg daily. The procedure:
Table 2. […] A person with past history of tremors was admitted with fever, stiff neck, severe confusion, and gross tremors to a hospital in Omaha, Nebr. one night. Their serum was positive for IgM reactive to West Nile virus. They were begun on olmesartan 20 mg daily. […] They were discharged home on olmesartan 20 mg daily. • 2. A person with hypertension treated with a beta-blocker/thiazide combination drug, was admitted to a hospital in Omaha, Nebr. with right leg paralysis and paresthesias and weakness in their left leg. Their serum was positive for IgM reactive to West Nile virus. They were begun on losartan 50 mg daily. […] A person with a history of seizures was admitted one night to a hospital in Omaha, Nebr. with a fever and a grand mal seizure. They had been taking olmesartan 20 mg daily for mild hypertension. Their serum was positive for IgM reactive to West Nile virus. […] Their usual dose of olmesartan 20 mg daily was resumed thereafter. […] A person was admitted with fever, stiff neck, and severe confusion to a hospital in Omaha, Nebr. Their serum was positive for IgM antibodies reactive to West Nile virus. They were begun on losartan 50 mg daily. […] A person was admitted with fever, stiff neck, and severe confusion to a hospital in Omaha, Nebr. Their serum was positive for IgM antibodies reactive to West Nile virus. They were begun on losartan 50 mg daily. […] A person was admitted with fever, stiff neck, and severe confusion to a hospital in Pueblo, CO. Their serum was positive for IgM antibodies reactive to West Nile virus. They were begun on losartan 50 mg daily. […] A person with chronic lymphocytic leukemia was admitted with fever and obtundation to a hospital in Pueblo, CO. Their serum was positive by EIA for West Nile virus antibodies. […] Head CT and MRI scans were negative.

The target of the next data set is tACE (Homo sapiens, UniProt P12821). Conditions: cited from earlier work.
Sequence of tACE (P12821 other isoform, or with tags, fused parts or gaps): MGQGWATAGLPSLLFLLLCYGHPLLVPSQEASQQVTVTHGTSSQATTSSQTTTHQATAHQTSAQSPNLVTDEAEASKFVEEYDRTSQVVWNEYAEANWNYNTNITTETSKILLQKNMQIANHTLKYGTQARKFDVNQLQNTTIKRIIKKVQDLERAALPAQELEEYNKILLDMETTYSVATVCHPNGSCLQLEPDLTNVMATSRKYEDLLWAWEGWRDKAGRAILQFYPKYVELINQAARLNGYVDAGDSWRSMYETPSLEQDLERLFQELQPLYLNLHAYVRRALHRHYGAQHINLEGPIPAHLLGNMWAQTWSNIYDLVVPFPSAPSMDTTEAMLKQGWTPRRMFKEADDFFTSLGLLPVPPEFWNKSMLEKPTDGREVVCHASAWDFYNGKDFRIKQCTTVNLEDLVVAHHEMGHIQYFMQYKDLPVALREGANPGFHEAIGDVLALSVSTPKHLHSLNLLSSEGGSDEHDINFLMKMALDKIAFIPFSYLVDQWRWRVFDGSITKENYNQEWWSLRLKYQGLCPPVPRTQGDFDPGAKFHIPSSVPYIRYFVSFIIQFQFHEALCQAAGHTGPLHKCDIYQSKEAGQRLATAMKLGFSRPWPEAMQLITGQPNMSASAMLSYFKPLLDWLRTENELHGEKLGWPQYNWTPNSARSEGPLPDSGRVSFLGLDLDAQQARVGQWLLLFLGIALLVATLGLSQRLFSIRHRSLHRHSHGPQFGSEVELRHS
The next data set deals with T1, serum ACE (Homo sapiens, UniProt P12821).
T1 construct: host or cells: serum
T1 sequence (P12821 30-1232): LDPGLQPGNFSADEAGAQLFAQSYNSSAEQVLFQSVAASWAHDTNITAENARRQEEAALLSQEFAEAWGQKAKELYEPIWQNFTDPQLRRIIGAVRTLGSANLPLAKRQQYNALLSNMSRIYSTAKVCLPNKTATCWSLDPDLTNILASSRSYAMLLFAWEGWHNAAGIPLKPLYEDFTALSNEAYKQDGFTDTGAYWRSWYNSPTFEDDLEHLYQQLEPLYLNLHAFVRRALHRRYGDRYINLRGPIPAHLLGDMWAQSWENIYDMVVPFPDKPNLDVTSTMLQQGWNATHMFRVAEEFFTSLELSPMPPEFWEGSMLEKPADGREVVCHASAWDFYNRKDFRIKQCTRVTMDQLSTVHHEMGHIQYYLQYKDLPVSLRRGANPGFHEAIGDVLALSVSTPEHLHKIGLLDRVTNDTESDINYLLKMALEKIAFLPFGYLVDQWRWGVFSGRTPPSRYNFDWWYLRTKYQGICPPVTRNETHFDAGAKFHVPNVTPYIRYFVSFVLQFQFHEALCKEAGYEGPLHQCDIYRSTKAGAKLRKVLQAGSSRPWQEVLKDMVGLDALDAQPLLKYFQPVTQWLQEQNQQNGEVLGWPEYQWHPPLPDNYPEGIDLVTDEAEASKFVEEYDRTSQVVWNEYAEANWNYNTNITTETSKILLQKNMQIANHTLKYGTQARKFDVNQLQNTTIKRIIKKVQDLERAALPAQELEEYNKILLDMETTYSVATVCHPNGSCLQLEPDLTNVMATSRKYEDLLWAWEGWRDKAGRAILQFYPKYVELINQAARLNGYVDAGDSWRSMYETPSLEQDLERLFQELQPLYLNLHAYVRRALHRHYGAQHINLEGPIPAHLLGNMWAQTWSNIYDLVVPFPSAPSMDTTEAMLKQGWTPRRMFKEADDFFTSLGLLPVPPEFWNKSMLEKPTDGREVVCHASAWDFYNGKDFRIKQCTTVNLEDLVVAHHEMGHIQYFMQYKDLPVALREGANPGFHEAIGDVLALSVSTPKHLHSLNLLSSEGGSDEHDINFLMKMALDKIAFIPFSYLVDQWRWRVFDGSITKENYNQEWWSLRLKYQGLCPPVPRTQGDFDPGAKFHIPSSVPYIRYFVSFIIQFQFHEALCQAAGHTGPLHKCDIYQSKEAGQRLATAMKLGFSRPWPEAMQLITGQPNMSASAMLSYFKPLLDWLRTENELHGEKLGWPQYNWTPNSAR
The note with it: cited from earlier work.

Data set [3] deals with T2, ACE (Homo sapiens, UniProt P12821). Conditions: cited from earlier work.
T2 sequence (P12821 30-1306): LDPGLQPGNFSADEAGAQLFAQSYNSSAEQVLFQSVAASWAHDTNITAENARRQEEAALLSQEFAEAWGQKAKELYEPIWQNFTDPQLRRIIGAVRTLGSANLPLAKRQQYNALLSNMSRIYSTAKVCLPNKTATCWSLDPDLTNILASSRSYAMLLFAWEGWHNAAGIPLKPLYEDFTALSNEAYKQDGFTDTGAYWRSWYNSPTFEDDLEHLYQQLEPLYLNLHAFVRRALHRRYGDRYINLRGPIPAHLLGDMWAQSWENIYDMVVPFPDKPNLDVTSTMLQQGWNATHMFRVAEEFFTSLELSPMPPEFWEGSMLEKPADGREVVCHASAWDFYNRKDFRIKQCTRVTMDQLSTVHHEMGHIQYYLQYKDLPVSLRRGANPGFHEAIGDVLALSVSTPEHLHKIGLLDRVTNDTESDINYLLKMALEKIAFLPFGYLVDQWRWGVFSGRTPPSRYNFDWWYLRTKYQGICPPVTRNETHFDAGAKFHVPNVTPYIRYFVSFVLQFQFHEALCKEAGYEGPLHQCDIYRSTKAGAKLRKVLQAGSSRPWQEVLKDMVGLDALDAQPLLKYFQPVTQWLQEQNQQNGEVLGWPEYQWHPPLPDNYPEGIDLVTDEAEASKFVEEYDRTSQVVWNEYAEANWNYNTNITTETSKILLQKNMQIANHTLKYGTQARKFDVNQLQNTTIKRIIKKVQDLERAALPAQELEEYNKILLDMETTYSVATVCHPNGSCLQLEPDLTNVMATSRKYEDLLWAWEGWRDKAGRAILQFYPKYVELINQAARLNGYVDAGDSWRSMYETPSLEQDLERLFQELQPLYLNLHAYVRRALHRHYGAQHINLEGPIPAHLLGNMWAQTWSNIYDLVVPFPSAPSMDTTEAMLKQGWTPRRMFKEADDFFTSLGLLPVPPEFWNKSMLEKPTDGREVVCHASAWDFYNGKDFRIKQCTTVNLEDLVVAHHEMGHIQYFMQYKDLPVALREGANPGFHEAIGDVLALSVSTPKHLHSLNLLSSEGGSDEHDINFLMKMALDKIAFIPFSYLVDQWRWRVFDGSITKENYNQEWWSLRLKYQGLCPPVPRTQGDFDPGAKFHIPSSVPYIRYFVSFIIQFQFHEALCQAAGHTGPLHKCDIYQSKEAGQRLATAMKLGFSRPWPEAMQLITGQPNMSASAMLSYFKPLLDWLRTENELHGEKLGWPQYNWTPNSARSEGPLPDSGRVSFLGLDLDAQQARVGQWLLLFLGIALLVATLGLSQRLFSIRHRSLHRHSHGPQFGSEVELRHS
The test system of a further data set is pulmonary hypertension. Conditions: clinical comparison, from [20,22]; cited from earlier work.
Data set [4] addresses T2, ACE. The note with it: binding affinity, from [27]; cited from earlier work.
The test system of another data set is alopecia areata. Briefly: case reports: alopecia areata treated with an ARB. Format: in vivo, human.
Data set [5] is classed as in vivo, human. The note with it: 40 mg po qhs; reduced from 98 mm Hg. As to the method:
Because many patients with an autoimmune disease such as alopecia greata, psoriasis, rheumatoid arthritis, multiple sclerosis, etc. are normotensive or even relatively hypotensive, an ACE inhibitor may not be the best choice for them. They might not be able to tolerate a sufficiently high dose of an ACE inhibitor, certainly any dose approaching 2 mg/kg/day. Instead, an AT1 receptor blocker appears to be effective at doses which cause minimal blood pressure (BP) reduction. […]

For another data set, the system named is psoriasis. The data set is classed as in vivo, human. The note with it: one person with type II diabetes, quinapril 200 mg/day (2 mg/kg/day); could stop daily methotrexate 75 mg.
Data set [6] has as its system unresectable pancreatic cancer. Briefly: case report: unresectable pancreatic cancer, quinapril added. The data set is classed as in vivo, human. Conditions: person, 5-FU and Naitrexone since February 2002, quinapril (60 mg) since November 2002; median survival of similar patients less than 4 months.
A further data set relates to chronic renal failure. The note with it: clinical comparison, from [20]; cited from earlier work.
The mark [7] stands for this setting: pH 7.4, active moiety, calculated from [23].
[8] abbreviates: patient 2, losartan 50 mg daily.
[9] abbreviates: pH 7.4, active moiety, calculated from [24].

SMILES strings stand for the structures. Entries after “also recorded” stand apart in the source; their conditions may differ. Read-outs that look alike come from different tables or passages of the source. Where only a bound is given, the exact number is not on record here.

In the case of `C[C@H](N[C@@H](CCc1ccccc1)C(=O)O)C(=O)N1[C@H](C(=O)O)C[C@H]2CCCC[C@@H]21` [Trandolaprilat], in data set [1] (setting [7]), the “P(octanol:water)” value was 10.47.
Consider `CCCCc1nc(Cl)c(CO)n1Cc1ccc(-c2ccccc2-c2nn[nH]n2)cc1` [losartan], for which, in data set [2] (setting [8]), the right leg paralysis result is “no change”. In addition, the “time until paresthesias and weakness in left leg stopped” value in [2] (setting [8]) is 1 to 2 days. Moreover, in data set [2] (patient 3, losartan 50 mg twice in first 24 hr, usual olmesartan 20 mg daily resumed thereafter), the “time to full recovery” value is at most 12 h. Also, the “time until meningoencephalitis disappeared” value in data set [2] (patient 4, losartan 50 mg daily) is at most 48 h; in [2] (patient 5, losartan 50 mg daily), at most 48 h; in data set [2] (patient 6, losartan 50 mg daily), at most 24 h. The “time until disappearance of residual weakness and fatigue” value in [2] (patient 7, one month after meningoencephalitis, losartan 50 mg daily) was at most 24 h. The clinical outcome in data set [2] is given as “remained in coma”.
Take `O[C@H](CS)[C@H](O)CS` (racemic) [dithiothreitol]: on tACE, the “inhibition of tACE's activity” value was 78%.
`CCOC(=O)[C@H](CCc1ccccc1)N[C@@H](C)C(=O)N1[C@H](C(=O)O)C[C@@H]2CCC[C@@H]21` [ramipril]: the “inhibition of serum ACE activity” value on serum ACE (from [20]) is given as about 100%. Besides, the off time on ACE [3] (from [28-30]) is 24 h. Moreover, the “effectiveness at lowering pulmonary hypertension” value with pulmonary hypertension is recorded as “more effective at lowering pulmonary hypertension than enlapril”.
For the molecule `C[C@H](CS)C(=O)N1C[C@@H](Sc2ccccc2)C[C@H]1C(=O)O` [Zofenoprilat], the “P(octanol:water)” value in data set [1] (setting [9]) is recorded as 0.22.
With `O=C(O)CN1C(=O)[C@@H](N[C@@H](CCc2ccccc2)C(=O)O)CCc2ccccc21` [Benazeprilat], in data set [1] (setting [7]), the “P(octanol:water)” value is reported as 3.0.
As to `CCC[C@H](N[C@@H](C)C(=O)N1[C@H](C(=O)O)C[C@@H]2CCCC[C@@H]21)C(=O)O` [Perindoprilat], the “P(octanol:water)” value in [1] (setting [7]) is listed as 0.44.
Take `C[C@H](CS)C(=O)N1CCC[C@H]1C(=O)O` [Captopril]: the “P(octanol:water)” value in data set [1] (setting [7]) is recorded as 0.01; in data set [1] (setting [9]), 0.004.
With `O=C(O)[C@H](CCc1ccccc1)N[C@H]1CCCN2CCC[C@@H](C(=O)O)N2C1=O` [Cilazaprilat], in data set [1] (setting [7]), the “P(octanol:water)” value is on record as 1.7.
Turning to `C[C@H](N[C@@H](CCc1ccccc1)C(=O)O)C(=O)N1[C@H](C(=O)O)C[C@@H]2CCC[C@@H]21` [Ramiprilat], the IC50 on ACE [4] was 0.67 nM. The “P(octanol:water)” value is listed as 2.6 in [1] (setting [7]) and 0.011 in data set [1] (setting [9]).
As for `CCCCC(=O)N(Cc1ccc(-c2ccccc2-c2nnn[nH]2)cc1)[C@H](C(=O)O)C(C)C` [valsartan], the “time until scalp hair loss resumed after stopping the ARB” value with alopecia areata (ARB stopped after 1 week, same patient) was 3 to 4 days. Further, the “time until hair loss stopped after starting the ARB” value in the data set on alopecia areata (active alopecia areata, child, 40 mg po qhs, n=1) is at most 36 h. Further, the “time for valsartan to have an effect” value in the data set with alopecia areata (more chronic form of alopecia areata, n=1) is given as “more than 5 days”. Also, in data set [5], the “systolic BP on treatment” value turned out to be 90 mm Hg.
Take `CCOC(=O)[C@H](CCc1ccccc1)N[C@@H](C)C(=O)N1CCC[C@H]1C(=O)O` [enalapril]: the clinical outcome in [2] is “remained in coma”. Besides, the “inhibition of serum ACE activity” value at serum ACE is on record as “about 50%”. Further, the off time at ACE [3] was 4 h.
For `O=C(O)[C@@H]1C[C@@H](C2CCCCC2)CN1C(=O)CP(=O)(O)CCCCc1ccccc1` [Fosinoprilat], in data set [1] (setting [9]), the “P(octanol:water)” value was 0.33.
As to `NCCCC[C@H](OP(=O)(O)CCCCc1ccccc1)C(=O)N1CCC[C@H]1C(=O)O` [Ceronapril], the “P(octanol:water)” value in data set [1] (setting [9]) was under 0.001.
Regarding `CCOC(=O)[C@H](CCc1ccccc1)N[C@@H](C)C(=O)N1Cc2ccccc2C[C@H]1C(=O)O` [quinapril], the response of psoriasis result in the data set on psoriasis is reported as “put the patient's psoriasis into remission; also recorded: responded dramatically”. Besides, the survival result in data set [6] is on record as “still alive in November, 2003”. Also, the off time on ACE [3] was 24 h. Also, the “effectiveness at delaying the progression of chronic renal failure” value in the data set with chronic renal failure is reported as “more effective than ramipril”.
Regarding `C[C@H](N[C@@H](CCc1ccccc1)C(=O)O)C(=O)N1Cc2ccccc2C[C@H]1C(=O)O` [Quinaprilat], the “P(octanol:water)” value in data set [1] (pH 7.4) was 6.6.

The values above are taken from patent publication US20060135422A1, “Use of angiotensin receptor blockers (ARBs) to treat diseases associated with excess ACE” (priority 2003, published 2006).
